{
  "source": "ChEMBL document CHEMBL1125524",
  "about": "“Adenosine A1 antagonists. 2. Structure-activity relationships on diuretic activities and protective effects against acute renal failure” (J Med Chem, 1992)",
  "key": {"Rattus norvegicus [1]": {"system": "Rattus norvegicus", "test": "Serum creatinine concentration measured after intraperitoneal administration of 1 mg/kg of compound to rats(vehicle 4.09+/-0.39)", "format": "functional"}, "Rattus norvegicus [2]": {"system": "Rattus norvegicus", "test": "Serum creatinine concentration measured after intraperitoneal administration of 1 mg/kg of compound to rats(vehicle 5.08+/-0.14)", "format": "functional"}, "Rattus norvegicus [3]": {"system": "Rattus norvegicus", "test": "Serum creatinine concentration measured after intraperitoneal administration of 1 mg/kg of compound to rats(vehicle 6.90+/-0.2)", "format": "functional"}, "Rattus norvegicus [4]": {"system": "Rattus norvegicus", "test": "Effect on urinary excretion potassium and sodium after oral administration of 0.1 mg/kg to rats(potassium and sodium excretion in control rat is 0.179+/-0.038)", "format": "functional, Urine"}, "Rattus norvegicus [5]": {"system": "Rattus norvegicus", "test": "Ratio of urinary excretion value (urinary volume) in treated rats to that in control rats, at a peroral dose of 0.1 mg/Kg", "format": "functional, Urine"}, "Rattus norvegicus [6]": {"system": "Rattus norvegicus", "test": "Ratio of urinary excretion value (urinary volume) in treated rats to that in control rats, at a peroral dose of 1.6 mg/Kg", "format": "functional, Urine"}, "Rattus norvegicus [7]": {"system": "Rattus norvegicus", "test": "Urea nitrogen concentration measured after intraperitoneal administration of 1 mg/kg of compound to rats(vehicle 165.3+/-4)", "format": "functional"}, "Rattus norvegicus [8]": {"system": "Rattus norvegicus", "test": "Urea nitrogen concentration measured after intraperitoneal administration of 1 mg/kg of compound to rats(vehicle 171.3+/-6.4)", "format": "functional"}, "Rattus norvegicus [9]": {"system": "Rattus norvegicus", "test": "Effect on urinary excretion potassium and sodium after oral administration of 0.01 mg/kg to rats(potassium and sodium excretion in control rat is 0.191+/-0.020)", "format": "functional, Urine"}, "Rattus norvegicus [10]": {"system": "Rattus norvegicus", "test": "Ratio of sodium ion/potassium ion concentration in treated rats to that in control rats, at a peroral dose of 0.01 mg/Kg", "format": "functional"}, "Rattus norvegicus [11]": {"system": "Rattus norvegicus", "test": "Ratio of sodium ion/potassium ion concentration in treated rats to that in control rats, at a peroral dose of 0.1 mg/Kg", "format": "functional"}, "Rattus norvegicus [12]": {"system": "Rattus norvegicus", "test": "Ratio of sodium ion/potassium ion concentration in treated rats to that in control rats, at a peroral dose of 1.6 mg/Kg", "format": "functional"}, "Rattus norvegicus [13]": {"system": "Rattus norvegicus", "test": "Ratio of urinary excretion value (Na+ concentration) in treated rats to that in control rats, at a peroral dose of 0.01 mg/Kg", "format": "functional, Urine"}, "Rattus norvegicus [14]": {"system": "Rattus norvegicus", "test": "Ratio of urinary excretion value (Na+ concentration) in treated rats to that in control rats, at a peroral dose of 0.1 mg/Kg", "format": "functional, Urine"}, "Rattus norvegicus [15]": {"system": "Rattus norvegicus", "test": "Ratio of urinary excretion value (Na+ concentration) in treated rats to that in control rats, at a peroral dose of 1.6 mg/Kg", "format": "functional, Urine"}, "Rattus norvegicus [16]": {"system": "Rattus norvegicus", "test": "Ratio of urinary excretion value (urinary volume) in treated rats to that in control rats, at a peroral dose of 0.01 mg/Kg", "format": "functional, Urine"}, "Rattus norvegicus [17]": {"system": "Rattus norvegicus", "test": "Effect on urinary excretion potassium and sodium after oral administration of 1.6 mg/kg to rats(potassium and sodium excretion in control rat is 0.173+/-0.015)", "format": "functional, Urine"}, "Rattus norvegicus [18]": {"system": "Rattus norvegicus", "test": "Oral diuretic activity was measured after oral administration of 1.6 mg/kg to rats(control volume is 0.93+/-0.03)", "format": "functional, Urine"}, "Rattus norvegicus [19]": {"system": "Rattus norvegicus", "test": "Oral diuretic activity was measured after oral administration of 0.01 mg/kg to rats(control volume is 1.15+/-0.17)", "format": "functional, Urine"}, "Rattus norvegicus [20]": {"system": "Rattus norvegicus", "test": "Oral diuretic activity was measured after oral administration of 0.1 mg/kg to rats(control volume is 0.75+/-0.12)", "format": "functional, Urine"}, "Rattus norvegicus [21]": {"system": "Rattus norvegicus", "test": "Urea nitrogen concentration measured after intraperitoneal administration of 1 mg/kg of compound to rats(vehicle 143.9+/-12.2)", "format": "functional"}, "Adenosine A2 receptor": {"target": "Adenosine A2 receptor (Rattus norvegicus, UniProt P29276+P30543)"}},
  "data": [
    {"compound": "CC(C)Cn1c(=O)n(C)c(=O)c2[nH]c(C(C3CC3)C3CC3)nc21", "values": [
      {"measurement": "Cr", "setting": "Rattus norvegicus [1]", "value": 4.28, "unit": "mg/dL"},
      {"measurement": "Cr", "setting": "Rattus norvegicus [2]", "value": 3.29, "unit": "mg/dL"},
      {"measurement": "Cr", "setting": "Rattus norvegicus [3]", "value": 3.97, "unit": "mg/dL"},
      {"measurement": "Na", "setting": "Rattus norvegicus [4]", "value": 0.25, "unit": "m equiv 6hr-1 100g-1"},
      {"measurement": "T/C", "setting": "Rattus norvegicus [5]", "value": 1.68},
      {"measurement": "T/C", "setting": "Rattus norvegicus [6]", "value": 2.08},
      {"measurement": "UN", "setting": "Rattus norvegicus [7]", "value": 122, "unit": "mg/dL"},
      {"measurement": "UN", "setting": "Rattus norvegicus [8]", "value": 110.7, "unit": "mg/dL"},
      {"measurement": "Na", "setting": "Rattus norvegicus [9]", "value": 0.212, "unit": "m equiv 6hr-1 100g-1"},
      {"measurement": "Na+/K+", "setting": "Rattus norvegicus [10]", "value": 1.09},
      {"measurement": "Na+/K+", "setting": "Rattus norvegicus [11]", "value": 2.13},
      {"measurement": "Na+/K+", "setting": "Rattus norvegicus [12]", "value": 1.37},
      {"measurement": "T/C", "setting": "Rattus norvegicus [13]", "value": 1.11},
      {"measurement": "T/C", "setting": "Rattus norvegicus [14]", "value": 1.4},
      {"measurement": "T/C", "setting": "Rattus norvegicus [15]", "value": 1.99},
      {"measurement": "T/C", "setting": "Rattus norvegicus [16]", "value": 1},
      {"measurement": "Na", "setting": "Rattus norvegicus [17]", "value": 0.345, "unit": "m equiv 6hr-1 100g-1"},
      {"measurement": "Urine volume", "setting": "Rattus norvegicus [18]", "value": 1.93, "unit": "ml 6hr-1 100g-1"},
      {"measurement": "Urine volume", "setting": "Rattus norvegicus [19]", "value": 1.15, "unit": "ml 6hr-1 100g-1"},
      {"measurement": "Urine volume", "setting": "Rattus norvegicus [20]", "value": 1.26, "unit": "ml 6hr-1 100g-1"},
      {"measurement": "UN", "setting": "Rattus norvegicus [21]", "value": 150.7, "unit": "mg/dL"},
      {"measurement": "Ki", "setting": "Adenosine A2 receptor", "value": 410, "unit": "nM"}
    ]}
  ]
}
